According to patent US8445539B2, “Alpha-aminoamide derivatives useful in the treatment of psychiatric disorders” (priority 2007, dated 2013):

Tested on: MK-801-induced PPI disruption
Test: Prepulse inhibition of startle with disruption by MK-801
Format: in vivo, Wistar rats
Conditions: pretreatment vehicle, treatment MK-801 0.2 mg/kg i.p., mean ± SEM
Description: Prepulse inhibition (PPI) is a cross-species phenomenon (i.e., it is present in mammals ranging from mice to humans), yet it is relatively impaired among schizophrenic patients. The PPI procedure is used to assess the subject's ability to “gate” or filter environmental information. In the acoustic (startle model) of sensorimotor gating a weak acoustic stimulus (prepulse) decrease the reflexive flinching response (startle) produced by a second, more intense, stimulus (the pulse). Drugs like dizocilpine (MK-801) or amphetamine disrupt PPI and represent an animal model of schizophrenia; antipsychotic drugs are able to prevent PPI deficit. The test is quite useful to screen potential antipsychotic drugs.
Methods: Male Wistar rats, weighing 200-300 g were used. Apparatus: All startle and PPI testing has been performed in four startle chambers. Each ventilated illuminated and sound proof chamber contained a clear non-restrictive Plexiglas cylinder resting on a platform. A high-frequency loudspeaker inside the chamber produced both a continuous background noise of 70 dB and the various acoustic stimuli. Vibrations of the Plexiglas cylinder caused by the whole-body startle response of the animal were transduced into analogue signals by a piezoelectric unit attached to the platform. These signals were then digitized and stored by a computer. Sixty-five readings were taken at 1-ms intervals starting at stimulus onset, and the average amplitude was used to determine the acoustic startle response. Sound levels is given in dB.
Prepulse inhibition session: After 5 min of habituation (background white noise, 70 dB), two types of acoustic stimuli were used: acoustic stimulus alone (120 dB, 40 ms) or the stimulus proceeded by a prepulse (76, 79, 82 dB, 40 ms) applied 100 ms before the stimulus. During each experimental session 20 trials of each type were presented with interstimulus interval of 20 s. The amplitudes were averaged for each individual animal, separately for both types of trials (stimulus alone or stimulus preceded by the prepulse). The degree of prepulse inhibition was shown as a percentage score (% PPI) calculated as […] a difference between the amplitude of the pulse-alone (P) and the amplitude of the prepulse+pulse trials (PP+P), divided by the amplitude of the pulse-alone trials and multiplied by 100. […] Substances and treatments: MK-801 0.2 mg/kg was dissolved in saline and was given i.p. In each experiment, […] were assigned to receive either compounds of the disclosure or vehicle and were tested in the PPI session using a between-subjects design. The order of drug treatment for the first experiment was test-compound, followed by MK-801; for the second experiment rats received test-compound and then amphetamine. Statistical Analysis: Multiple ANOVA was conducted followed by Dunnett's post hoc test.

## C[C@]12N[C@H](Cc3ccccc31)c1ccccc12 [MK-801, reference compound]
% PPI
  Percentage of inhibition: 9.07 ± 0.81 %
Startle amplitude
  Acoustic tone alone: 40.50 ± 1.96
  Startle amplitude on prepulse + pulse trials: 37.00 ± 2.11
